Some test systems named below: SW-620 colon; U251 CNS; LOX IMVI melanoma; HOP-92 NSCLC; HOP-62 NSCLC; A498 renal; UO-31 renal; HL-60(TB) leukemia; SR leukemia; HS 578T breast.
Holding throughout (assay): inhibition of tumour cell growth, NCI panel, 48 h

Data on seven compounds can be found in PubChem BioAssay (NCI).

Several values for one entry are separate records, joined by “and”; a condition that tells them apart may be missing. Equal values may be shown once.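 All cell lines were grown in 96-well plates and treated with compound for 48 hours. At the GI50, growth is halved. Definition used: TGI = concentration required for complete inhibition of growth.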

As for `Fc1cccc(COc2ccc(Nc3ncnc4sc(-c5cccs5)cc34)cc2Cl)c1`, the GI50 with SW-620 colon is greater than 13.3 µM; with U251 CNS it was 5.75 µM; in the test on LOX IMVI melanoma it was greater than 14.6 µM; in the test with HOP-92 NSCLC, 3.3 µM; in the test on HOP-62 NSCLC it was 4.88 µM; in the test on A498 renal, 6.88 µM. Further, the GI50 in the test with UO-31 renal is 5.78 µM; in the test with HL-60(TB) leukemia it was greater than 25 µM; with SR leukemia it was greater than 16.4 µM; in the test with HS 578T breast it was greater than 8.44 µM. Also, the TGI in the test on SW-620 colon is greater than 25 µM; in the test with U251 CNS it was 15.9 µM; with LOX IMVI melanoma, greater than 25 µM; in the test with HOP-92 NSCLC it was 10.2 µM; in the test with HOP-62 NSCLC, 9.86 µM; in the test on A498 renal, greater than 21.7 µM. For the same compound, the TGI with UO-31 renal was greater than 24.1 µM; in the test with HL-60(TB) leukemia it was greater than 25 µM; in the test on SR leukemia it was greater than 25 µM; in the test on HS 578T breast, greater than 14.9 µM.
For the compound `CCN(CC)c1ccc(/C=N/NC(=O)CSc2nc3ccccc3c(=O)n2CCc2ccc(S(N)(=O)=O)cc2)c(O)c1`, the GI50 with SW-620 colon was 3.12 µM; in the test on U251 CNS it was 1.44 µM; in the test on LOX IMVI melanoma, 1.09 µM; in the test on HOP-92 NSCLC, 2.15 µM; in the test with HOP-62 NSCLC it was 1.86 µM; in the test with A498 renal, greater than 100 µM. Besides, the GI50 in the test with UO-31 renal was 2.86 µM; with HL-60(TB) leukemia, 1.71 µM; in the test with SR leukemia, 0.445 µM; in the test on HS 578T breast it was 3.02 µM. The TGI was greater than 100 µM in the test with SW-620 colon; greater than 100 µM in the test on U251 CNS; 6.66 µM in the test with LOX IMVI melanoma; 75.2 µM with HOP-92 NSCLC; greater than 100 µM in the test on HOP-62 NSCLC; greater than 100 µM in the test on A498 renal. The TGI with UO-31 renal is greater than 100 µM; with HL-60(TB) leukemia, 6.44 µM; in the test on SR leukemia, greater than 100 µM; in the test on HS 578T breast, greater than 100 µM.
Turning to `Cc1nc([P+](c2ccccc2)(c2ccccc2)c2ccccc2)c(Sc2sc(-c3ccccc3)nc2[P+](c2ccccc2)(c2ccccc2)c2ccccc2)o1`, the GI50 in the test on SW-620 colon was 0.637 µM; in the test on U251 CNS, 0.344 µM; in the test with LOX IMVI melanoma, 1.82 µM; in the test on HOP-92 NSCLC, 0.759 µM; with HOP-62 NSCLC, 2.08 µM; in the test with A498 renal, 1.5 µM. The GI50 in the test on UO-31 renal is 1.81 µM; in the test with HL-60(TB) leukemia it was 1.39 µM; with SR leukemia it was 0.372 µM; with HS 578T breast, 1.22 µM. In addition, the TGI with SW-620 colon was 2.85 µM; with U251 CNS, 4.03 µM; in the test with LOX IMVI melanoma, 5.71 µM; with HOP-92 NSCLC it was 3.73 µM; in the test on HOP-62 NSCLC it was 13.2 µM; with A498 renal, 4.68 µM. Moreover, the TGI was determined as 5.99 µM with UO-31 renal, 4 µM in the test with HL-60(TB) leukemia, 17.2 µM in the test with SR leukemia and 5.32 µM in the test with HS 578T breast.
As for `C/C(=N\NC(=S)N1CCCCC1)c1ccccn1`, the GI50 with SW-620 colon was 0.0142 µM; in the test with U251 CNS it was less than 0.0105 µM; in the test on LOX IMVI melanoma, less than 0.0106 µM; in the test with HOP-92 NSCLC, 0.0963 µM; in the test on HOP-62 NSCLC, less than 0.016 µM; in the test on A498 renal, 0.228 µM. Moreover, the GI50 was less than 0.0123 µM in the test with UO-31 renal, 0.0527 µM with HL-60(TB) leukemia, less than 0.0157 µM with SR leukemia and 0.142 µM in the test on HS 578T breast. For the same compound, the TGI in the test on SW-620 colon was determined as 7.18 µM; with U251 CNS, 10.6 µM; in the test with LOX IMVI melanoma, 9.03 µM; in the test with HOP-92 NSCLC, 4.54 µM; in the test with HOP-62 NSCLC, 3.54 µM; in the test on A498 renal, 2.32 µM. In addition, the TGI in the test on UO-31 renal came out at 2.29 µM; in the test with HL-60(TB) leukemia it was 2.64 µM; in the test on SR leukemia, 10.7 µM.
As to `Nc1nccc(-c2c(-c3ccc(F)cc3)ncn2C2CCNCC2)n1`, the GI50 is 4.25 µM and 1.38 µM in the test with SW-620 colon; 3.67 µM and 1.95 µM in the test with U251 CNS; 2.84 µM and 2.33 µM with LOX IMVI melanoma; 3.07 µM in the test on HOP-92 NSCLC; 5.29 µM and 3.85 µM in the test on HOP-62 NSCLC; 8.88 µM and 2.16 µM in the test on A498 renal. Besides, the GI50 is 10.9 µM and 3.04 µM with UO-31 renal; > 25 µM and 6.47 µM in the test with HL-60(TB) leukemia; 10.2 µM and 2.23 µM in the test with SR leukemia; > 18.3 µM and 5.54 µM with HS 578T breast. Moreover, the TGI in the test with SW-620 colon, in the test on U251 CNS, in the test on LOX IMVI melanoma, with HOP-92 NSCLC, in the test with HOP-62 NSCLC and in the test on A498 renal was greater than 25 µM each time. For the same compound, the TGI is > 25 µM and 17.4 µM in the test on UO-31 renal; greater than 25 µM with HL-60(TB) leukemia; greater than 25 µM in the test on SR leukemia; greater than 25 µM in the test on HS 578T breast.
Regarding `O=c1c2c(=NCCN3CCCC3)cc3c(=O)n(CCCN4CCOCC4)c(=O)c4c(-c5ccc(CN6CCCC6)cc5)cc(c(O)n1CCCN1CCOCC1)c2c4-3`, the GI50 in the test with SW-620 colon is 0.0186 µM; in the test with U251 CNS, 0.0412 µM; with LOX IMVI melanoma it was 0.0369 µM; with HOP-92 NSCLC it was 0.0178 µM; in the test with HOP-62 NSCLC, 0.0255 µM; with A498 renal, 0.0381 µM. In addition, the GI50 in the test on UO-31 renal was 0.038 µM; in the test with HL-60(TB) leukemia, 0.231 µM; with SR leukemia, less than 0.0108 µM; in the test on HS 578T breast, 0.132 µM. For the same compound, the TGI is 0.342 µM with SW-620 colon; 1.36 µM with U251 CNS; 0.234 µM in the test with LOX IMVI melanoma; 0.0735 µM in the test with HOP-92 NSCLC; 0.221 µM in the test on HOP-62 NSCLC; 0.155 µM in the test with A498 renal. The TGI was 0.231 µM in the test on UO-31 renal, 1.64 µM in the test with HL-60(TB) leukemia, 11.1 µM with SR leukemia and 0.57 µM in the test on HS 578T breast.
On to `CCN1C/C(=C\c2cc(OC)c(OC)cc2OC)C(=O)/C(=C/c2cc(OC)c(OC)cc2OC)C1`, for which the GI50 in the test on SW-620 colon is 3.2 µM; in the test with U251 CNS, 3.08 µM; in the test on LOX IMVI melanoma it was 2.25 µM; with HOP-92 NSCLC it was 2.46 µM; in the test on HOP-62 NSCLC it was 3.45 µM; with A498 renal, 2.56 µM. The GI50 with UO-31 renal was 1.8 µM; in the test with HL-60(TB) leukemia, 2.84 µM; in the test on SR leukemia, 3.16 µM; with HS 578T breast it was 3.34 µM. The TGI in the test on SW-620 colon stood at 13.3 µM; in the test on U251 CNS, 14.3 µM; with LOX IMVI melanoma, 5.55 µM; in the test on HOP-92 NSCLC, 17.8 µM; in the test with HOP-62 NSCLC, 10.4 µM; in the test on A498 renal, 7.81 µM. Further, the TGI came to 3.9 µM in the test with UO-31 renal, 8.26 µM with HL-60(TB) leukemia, 8.99 µM in the test on SR leukemia and 79.5 µM with HS 578T breast.
